From PubChem BioAssay (NCI)
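Grown in 96-well plates, cells were treated for 48 hours with each compound at five concentrations. Insufficient inhibition: endpoint recorded as highest concentration tested. At the GI50, growth is halved. The concentration for full growth arrest is given as TGI.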

Tests used:
Test in all cases: DTP human tumour cell line panel, 48 h
UACC-62 melanoma = tested on: UACC-62 melanoma
NCI-H522 lung = tested on: NCI-H522 lung
BT-549 breast = tested on: BT-549 breast
SR leukemia = tested on: SR leukemia
HCT-15 colon = tested on: HCT-15 colon
RXF 393 renal = tested on: RXF 393 renal
DU-145 prostate = tested on: DU-145 prostate
HS 578T breast = tested on: HS 578T breast
NCI-H226 lung = tested on: NCI-H226 lung
IGROV1 ovarian = tested on: IGROV1 ovarian
ACHN renal = tested on: ACHN renal
HCC-2998 colon = tested on: HCC-2998 colon
SK-MEL-5 melanoma = tested on: SK-MEL-5 melanoma
SNB-19 CNS = tested on: SNB-19 CNS
CCRF-CEM leukemia = tested on: CCRF-CEM leukemia
UO-31 renal = tested on: UO-31 renal
SN12C renal = tested on: SN12C renal
HL-60(TB) leukemia = tested on: HL-60(TB) leukemia
MDA-MB-435 = tested on: MDA-MB-435
NCI-H460 lung = tested on: NCI-H460 lung
EKVX NSCLC = tested on: EKVX NSCLC
T-47D breast = tested on: T-47D breast
HOP-92 NSCLC = tested on: HOP-92 NSCLC
SK-MEL-28 melanoma = tested on: SK-MEL-28 melanoma
MCF7 breast = tested on: MCF7 breast
MOLT-4 leukemia = tested on: MOLT-4 leukemia
TK-10 renal = tested on: TK-10 renal
MDA-MB-231 breast = tested on: MDA-MB-231 breast
MALME-3M melanoma = tested on: MALME-3M melanoma
A498 renal = tested on: A498 renal
OVCAR-5 ovarian = tested on: OVCAR-5 ovarian
OVCAR-3 ovarian = tested on: OVCAR-3 ovarian
COLO 205 colon = tested on: COLO 205 colon
SF-539 CNS = tested on: SF-539 CNS
OVCAR-4 ovarian = tested on: OVCAR-4 ovarian
M14 melanoma = tested on: M14 melanoma
HOP-62 NSCLC = tested on: HOP-62 NSCLC
HCT-116 colon = tested on: HCT-116 colon
SK-MEL-2 melanoma = tested on: SK-MEL-2 melanoma
RPMI-8226 leukemia = tested on: RPMI-8226 leukemia
CAKI-1 renal = tested on: CAKI-1 renal
HT29 colon = tested on: HT29 colon
SF-268 CNS = tested on: SF-268 CNS
KM12 colon = tested on: KM12 colon
SW-620 colon = tested on: SW-620 colon
SF-295 CNS = tested on: SF-295 CNS
LOX IMVI melanoma = tested on: LOX IMVI melanoma
PC-3 prostate = tested on: PC-3 prostate
A549 NSCLC = tested on: A549 NSCLC
SNB-75 CNS = tested on: SNB-75 CNS
SK-OV-3 ovarian = tested on: SK-OV-3 ovarian
UACC-257 melanoma = tested on: UACC-257 melanoma
U251 CNS = tested on: U251 CNS
786-0 renal = tested on: 786-0 renal

CCN(CC)c1ccc(NC2=C(Cl)C(=O)c3nc(C)ccc3C2=O)cc1
GI50 (UACC-62 melanoma): 1.63 µM
TGI (UACC-62 melanoma): 3.13 µM
GI50 (NCI-H522 lung): 1.81 µM
TGI (NCI-H522 lung): 3.92 µM
GI50 (BT-549 breast): 1.58 µM
TGI (BT-549 breast): 2.96 µM
GI50 (SR leukemia): 0.643 µM
TGI (SR leukemia): 3.67 µM
GI50 (HCT-15 colon): 1.63 µM
TGI (HCT-15 colon): 3.34 µM
GI50 (RXF 393 renal): 1.63 µM
TGI (RXF 393 renal): 3.02 µM
GI50 (DU-145 prostate): 1.93 µM
TGI (DU-145 prostate): 3.51 µM
GI50 (HS 578T breast): 2.38 µM
TGI (HS 578T breast): 6.37 µM
GI50 (NCI-H226 lung): 2.27 µM
TGI (NCI-H226 lung): 5.6 µM
GI50 (IGROV1 ovarian): 2.11 µM
TGI (IGROV1 ovarian): 4.31 µM
GI50 (ACHN renal): 1.93 µM
TGI (ACHN renal): 3.43 µM
GI50 (HCC-2998 colon): 1.89 µM
TGI (HCC-2998 colon): 3.55 µM
GI50 (SK-MEL-5 melanoma): 1.75 µM
TGI (SK-MEL-5 melanoma): 3.22 µM
GI50 (SNB-19 CNS): 1.77 µM
TGI (SNB-19 CNS): 3.35 µM
GI50 (CCRF-CEM leukemia): 2.27 µM
TGI (CCRF-CEM leukemia): 6.43 µM
GI50 (UO-31 renal): 1.54 µM
TGI (UO-31 renal): 2.93 µM
GI50 (SN12C renal): 1.95 µM
TGI (SN12C renal): 4.35 µM
GI50 (HL-60(TB) leukemia): 1.55 µM
TGI (HL-60(TB) leukemia): 4.1 µM
GI50 (MDA-MB-435): 1.99 µM
TGI (MDA-MB-435): 3.87 µM
GI50 (NCI-H460 lung): 5.38 µM
TGI (NCI-H460 lung): 23.2 µM
GI50 (EKVX NSCLC): 1.59 µM
TGI (EKVX NSCLC): 3.33 µM
GI50 (T-47D breast): 1.96 µM
TGI (T-47D breast): 5.46 µM
GI50 (HOP-92 NSCLC): 1.71 µM
TGI (HOP-92 NSCLC): 3.41 µM
GI50 (SK-MEL-28 melanoma): 2.04 µM
TGI (SK-MEL-28 melanoma): 3.68 µM
GI50 (MCF7 breast): 1.94 µM
TGI (MCF7 breast): 5.04 µM
GI50 (MOLT-4 leukemia): 1.91 µM
TGI (MOLT-4 leukemia): 5.43 µM
GI50 (TK-10 renal): 2.05 µM
TGI (TK-10 renal): 3.51 µM
GI50 (MDA-MB-231 breast): 1.89 µM
TGI (MDA-MB-231 breast): 3.69 µM
GI50 (MALME-3M melanoma): 2.18 µM
TGI (MALME-3M melanoma): 4.13 µM
GI50 (A498 renal): 11.9 µM
TGI (A498 renal): 24.5 µM
GI50 (OVCAR-5 ovarian): 2.12 µM
TGI (OVCAR-5 ovarian): 4.1 µM
GI50 (OVCAR-3 ovarian): 1.81 µM
TGI (OVCAR-3 ovarian): 3.3 µM
GI50 (COLO 205 colon): 1.92 µM
TGI (COLO 205 colon): 3.82 µM
GI50 (SF-539 CNS): 1.82 µM
TGI (SF-539 CNS): 3.38 µM
GI50 (OVCAR-4 ovarian): 1.82 µM
TGI (OVCAR-4 ovarian): 3.52 µM
GI50 (M14 melanoma): 1.73 µM
TGI (M14 melanoma): 3.3 µM
GI50 (HOP-62 NSCLC): 3.21 µM
TGI (HOP-62 NSCLC): 12.2 µM
GI50 (HCT-116 colon): 1.75 µM
TGI (HCT-116 colon): 3.63 µM
GI50 (SK-MEL-2 melanoma): 1.85 µM
TGI (SK-MEL-2 melanoma): 3.48 µM
GI50 (RPMI-8226 leukemia): 2.52 µM
TGI (RPMI-8226 leukemia): 6.29 µM
GI50 (CAKI-1 renal): 1.61 µM
TGI (CAKI-1 renal): 3.16 µM
GI50 (HT29 colon): 2.66 µM
TGI (HT29 colon): 6.76 µM
GI50 (SF-268 CNS): 1.8 µM
TGI (SF-268 CNS): 3.53 µM
GI50 (KM12 colon): 2.42 µM
TGI (KM12 colon): 5.88 µM
GI50 (SW-620 colon): 2.18 µM
TGI (SW-620 colon): 4.74 µM
GI50 (SF-295 CNS): 1.97 µM
TGI (SF-295 CNS): 4.23 µM
GI50 (LOX IMVI melanoma): 1.67 µM
TGI (LOX IMVI melanoma): 3.5 µM
GI50 (PC-3 prostate): 1.8 µM
TGI (PC-3 prostate): 3.66 µM
GI50 (A549 NSCLC): 2.61 µM
TGI (A549 NSCLC): 7.05 µM
GI50 (SNB-75 CNS): 1.98 µM
TGI (SNB-75 CNS): 5.03 µM
GI50 (SK-OV-3 ovarian): 2.2 µM
TGI (SK-OV-3 ovarian): 6.57 µM
GI50 (UACC-257 melanoma): 1.6 µM
TGI (UACC-257 melanoma): 3 µM
GI50 (U251 CNS): 1.87 µM
TGI (U251 CNS): 3.57 µM
GI50 (786-0 renal): 1.87 µM
TGI (786-0 renal): 3.55 µM
